Data on 12 molecules can be found in patent publication US9562035B2, “Benzamide derivative useful as FASN inhibitors for the treatment of cancer” (Janssen Pharmaceutica NV, priority 2013, dated 2017).

For assay [1], the system named is A2780 ovarian cells. Description: A2780 Ovarian Cell Proliferation Assay in Lipid Reduced Medium, with Palmitate (control). It counts as cell-based. The following applies: Homo sapiens, A2780; lipid reduced medium, 25 μM palmitate, 96 h, MTT; read-out: Proliferation A2780 with Palmitate pIC50 (converted). The essentials:
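Read-out was MTT absorbance at 544 nm after 96 h at 37 °C. Cells grown overnight in RPMI1640/10% FCS were moved to 10% lipid-reduced serum with compound plus palmitate (final 25 μM, 0.2% fatty-acid-free BSA, 0.2% DMSO). IC50 came from least-squares curve fitting, expressed as −log(IC50).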

Assay [2] addresses T1, FASN Keto-reductase Domain (Homo sapiens, UniProt P49327).
T1 construct: 10 μL hFASN enzyme (full length, 300 ng, purified in house) and 360 μM NADPH; made in house
Description: Fatty Acid Synthase Keto-Reductase Domain (FASN KR) Inhibition. The class given is biochemical. The note with it: mean where tested more than once; read-out: FASN K-R Domain pIC50 (converted). A digest of the protocol: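 Keto-reductase activity followed as NADPH consumption (A340 drop between 0 and 20 min, room temperature) using in-house full-length hFASN, 360 μM NADPH and ethyl acetoacetate substrate (180 mM stock), pH 7.5 phosphate buffer.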

For assay [3], the system named is A2780 ovarian cells. Description: A2780 Ovarian Cell Proliferation Assay in Lipid Reduced Medium, without Palmitate. The class given is cell-based. The note with it: Homo sapiens, A2780; lipid reduced medium, without palmitate, 96 h, MTT; read-out: Proliferation A2780 w/o Palmitate pIC50 (converted). The essentials: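 A2780 cells were seeded in 10% FCS medium and switched next day to 10% lipid-reduced serum without palmitate. Compounds at 0.01–30 μM were added with 0.2% DMSO, 0.2% fatty-acid-free BSA and 0.25% ethanol final. After 96 h, MTT absorbance at 544 nm was normalized to plate controls, and IC50/pIC50 came from a 4-parameter logistic fit.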

Assay [4] has as its target T2, hFASN enzyme (full length) (Homo sapiens, UniProt P49327).
T2 construct: 10 μL hFASN enzyme (full length, 300 ng, purified in house); made in house
Kind of assay: Fatty Acid Synthase (FASN) Inhibition Scintillation Proximity Assay. The class given is biochemical. The note with it: for IC50: mean where tested more than once, ~ = standard error of pIC50 larger than 0.5; for inhibition at 10 µM: read-out: FASN % Effect @1E−05M. A digest of the protocol: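 Eight compound concentrations (0.01–30 μM) tested in pH 7.5 phosphate buffer with DTT; human full-length enzyme converted [3H]-acetyl-CoA plus malonyl-CoA, with NADPH, over 60 min at room temperature. Hydrophobic [3H]-palmitate detected by bead proximity scintillation imaging; control-normalised data fitted for IC50/pIC50.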
A general note: In a scintillation proximity assay essentially only radioactivity close to the scintillant gives light.

T2 sequence (P49327 whole entry): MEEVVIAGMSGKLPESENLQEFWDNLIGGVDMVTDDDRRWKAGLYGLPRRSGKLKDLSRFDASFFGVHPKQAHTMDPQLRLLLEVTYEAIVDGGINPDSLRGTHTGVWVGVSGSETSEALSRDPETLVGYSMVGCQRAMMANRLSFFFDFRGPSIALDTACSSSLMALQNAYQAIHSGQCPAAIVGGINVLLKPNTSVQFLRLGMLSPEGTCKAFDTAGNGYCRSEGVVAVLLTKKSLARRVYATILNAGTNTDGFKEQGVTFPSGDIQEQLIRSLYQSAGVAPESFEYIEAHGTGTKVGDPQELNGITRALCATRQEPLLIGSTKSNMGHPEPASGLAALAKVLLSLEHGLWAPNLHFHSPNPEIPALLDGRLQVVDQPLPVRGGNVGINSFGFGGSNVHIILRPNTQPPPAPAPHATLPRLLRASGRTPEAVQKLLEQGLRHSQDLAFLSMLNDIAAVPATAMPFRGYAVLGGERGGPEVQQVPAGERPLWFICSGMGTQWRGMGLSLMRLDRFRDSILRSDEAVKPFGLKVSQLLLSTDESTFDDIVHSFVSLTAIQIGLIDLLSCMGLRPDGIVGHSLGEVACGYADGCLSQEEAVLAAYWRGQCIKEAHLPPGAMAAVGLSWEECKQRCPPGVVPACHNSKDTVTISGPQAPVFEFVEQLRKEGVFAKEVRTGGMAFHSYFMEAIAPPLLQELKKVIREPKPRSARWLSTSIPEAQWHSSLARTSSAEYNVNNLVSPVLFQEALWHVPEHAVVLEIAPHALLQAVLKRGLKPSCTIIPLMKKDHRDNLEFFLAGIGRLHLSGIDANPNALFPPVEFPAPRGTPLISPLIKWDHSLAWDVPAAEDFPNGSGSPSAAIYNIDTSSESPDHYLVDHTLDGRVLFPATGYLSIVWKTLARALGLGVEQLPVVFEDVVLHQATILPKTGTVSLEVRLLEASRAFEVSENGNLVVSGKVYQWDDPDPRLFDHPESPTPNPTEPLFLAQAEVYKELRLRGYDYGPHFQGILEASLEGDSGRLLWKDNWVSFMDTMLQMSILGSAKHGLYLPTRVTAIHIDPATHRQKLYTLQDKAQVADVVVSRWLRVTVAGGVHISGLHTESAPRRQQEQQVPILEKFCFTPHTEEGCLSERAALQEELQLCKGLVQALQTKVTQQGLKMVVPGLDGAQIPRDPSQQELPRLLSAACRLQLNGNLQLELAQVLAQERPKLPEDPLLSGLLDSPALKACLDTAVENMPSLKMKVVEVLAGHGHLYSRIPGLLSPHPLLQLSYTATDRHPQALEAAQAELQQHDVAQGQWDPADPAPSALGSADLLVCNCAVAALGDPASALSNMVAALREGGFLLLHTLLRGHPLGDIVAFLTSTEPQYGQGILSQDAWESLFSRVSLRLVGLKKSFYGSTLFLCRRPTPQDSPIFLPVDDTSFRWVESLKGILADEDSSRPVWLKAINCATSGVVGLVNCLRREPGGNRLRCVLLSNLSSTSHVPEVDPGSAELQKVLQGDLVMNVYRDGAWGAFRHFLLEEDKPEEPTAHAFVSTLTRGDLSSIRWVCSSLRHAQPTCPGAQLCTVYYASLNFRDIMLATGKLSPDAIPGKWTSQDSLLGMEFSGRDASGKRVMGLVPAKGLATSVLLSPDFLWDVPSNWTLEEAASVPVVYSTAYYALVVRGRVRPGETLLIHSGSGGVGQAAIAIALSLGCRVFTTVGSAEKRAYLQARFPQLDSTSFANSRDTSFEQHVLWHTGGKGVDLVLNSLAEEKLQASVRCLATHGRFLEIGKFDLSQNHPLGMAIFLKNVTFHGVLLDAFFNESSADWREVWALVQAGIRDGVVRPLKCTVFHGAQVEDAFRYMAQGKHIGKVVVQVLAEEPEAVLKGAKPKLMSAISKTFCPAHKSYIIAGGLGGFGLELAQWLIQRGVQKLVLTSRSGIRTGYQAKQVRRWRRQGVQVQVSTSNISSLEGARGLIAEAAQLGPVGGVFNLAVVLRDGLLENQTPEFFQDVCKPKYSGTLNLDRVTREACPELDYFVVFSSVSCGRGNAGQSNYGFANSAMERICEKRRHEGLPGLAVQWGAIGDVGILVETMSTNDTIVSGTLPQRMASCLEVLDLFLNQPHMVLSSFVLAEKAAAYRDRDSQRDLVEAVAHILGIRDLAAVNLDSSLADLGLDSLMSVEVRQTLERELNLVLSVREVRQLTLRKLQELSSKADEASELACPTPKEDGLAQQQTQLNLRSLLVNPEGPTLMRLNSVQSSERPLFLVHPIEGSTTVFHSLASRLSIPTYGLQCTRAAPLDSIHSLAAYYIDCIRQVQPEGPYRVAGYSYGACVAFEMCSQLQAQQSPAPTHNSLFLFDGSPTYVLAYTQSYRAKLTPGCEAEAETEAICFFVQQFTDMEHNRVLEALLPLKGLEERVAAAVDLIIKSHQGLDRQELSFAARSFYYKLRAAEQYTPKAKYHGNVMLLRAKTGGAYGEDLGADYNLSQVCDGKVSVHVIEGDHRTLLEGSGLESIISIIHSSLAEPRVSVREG
T1 sequence (P49327 whole entry, the tested form may be a part): as the sequence (P49327 whole entry) above

On to `Cc1ccc(C(=O)N2CCC(c3ccc(-c4cnn(C)c4)cc3)CC2)cc1NC(=O)C1CN(CC(C)C)C1` [Compound 210, 1-isobutyl-N-(2-methyl-5-(4-(4-(1-methyl-1H-pyrazol-4-yl)phenyl)piperidine-1-carbonyl)phenyl)azetidine-3-carboxamide], for which the IC50 with A2780 ovarian cells [1] was > 10000 nM; in assay [2] it was 309 nM; with A2780 ovarian cells [3] it was 110 nM; in assay [4] it was 85.1 nM. Also, the inhibition at 10 µM in assay [4] was determined as 108%.

On to `CC(C)Nc1ccc(C(=O)Nc2cc(C(=O)N3CCC(c4ccc(-c5ccnn5C)cc4)CC3)ccc2Cl)cn1` [Compound 70, N-(2-chloro-5-(4-(4-(1-methyl-1H-pyrazol-5-yl)phenyl)piperidine-1-carbonyl)phenyl)-6-(isopropylamino)nicotinamide], for which the IC50 was 3550 nM with A2780 ovarian cells [1], 245 nM in assay [2], 437 nM with A2780 ovarian cells [3] and 56.2 nM in assay [4]. The inhibition at 10 µM in assay [4] was 109%.

As to `Cc1ccc(C(=O)N2CC(c3ccc(-c4cccnc4N)cc3)C2)cc1NC(=O)c1ccc(N2CCOCC2)nc1` [Compound 260, N-(5-(3-(4-(2-aminopyridin-3-yl)phenyl)azetidine-1-carbonyl)-2-methylphenyl)-6-morpholinonicotinamide], the IC50 was > 10000 nM with A2780 ovarian cells [1], 102 nM in assay [2], 34.7 nM with A2780 ovarian cells [3] and 25.1 nM in assay [4]. Further, in assay [4], the inhibition at 10 µM was 112%.

Turning to `Cc1ccc(C(=O)N2CCC(c3ccc(-c4cnn(C)c4)cc3)CC2)cc1NC(=O)C1CN(C2CCC2)C1` [Compound 240, 1-cyclobutyl-N-(2-methyl-5-(4-(4-(1-methyl-1H-pyrazol-4-yl)phenyl)piperidine-1-carbonyl)phenyl)azetidine-3-carboxamide], the IC50 was > 10000 nM in the assay on A2780 ovarian cells [1], 407 nM in assay [2], 162 nM in the assay on A2780 ovarian cells [3] and 83.2 nM in assay [4]. Further, the inhibition at 10 µM in assay [4] came out at 106%.

For `Cc1ccc(C(=O)N2CCC(c3ccc(-c4cnn(C)c4)cc3)CC2)cc1NC(=O)c1ccc(F)cc1F` [Compound 131, 2,4-difluoro-N-(2-methyl-5-(4-(4-(1-methyl-1H-pyrazol-4-yl)phenyl)piperidine-1-carbonyl)phenyl)benzamide], the IC50 in the assay on A2780 ovarian cells [1] is > 6170 nM; in assay [2] it was 107 nM; in the assay on A2780 ovarian cells [3], 126 nM; in assay [4], 51.3 nM. The inhibition at 10 µM in assay [4] is 109%.

In the case of `CCN1CC(C(=O)Nc2cc(C(=O)N3CCC(c4ccc(-c5cnn(C)c5)cc4)CC3)ccc2C)C1` [Compound 205, 1-ethyl-N-(2-methyl-5-(4-(4-(1-methyl-1H-pyrazol-4-yl)phenyl)piperidine-1-carbonyl)phenyl)azetidine-3-carboxamide], the IC50 in the assay on A2780 ovarian cells [1] is > 10000 nM; in assay [2] it was 589 nM; in the assay with A2780 ovarian cells [3] it was 355 nM; in assay [4], 269 nM. The inhibition at 10 µM in assay [4] is 95%.

`CC(C)Nc1ccc(C(=O)Nc2cc(C(=O)N3CC[C@H](c4ccc(-c5ccnn5C)cc4)[C@@H](O)C3)ccc2Cl)cn1` (racemic) [Compound #77, (±)-N-(2-chloro-5-((3R,4R)-3-hydroxy-4-(4-(1-methyl-1H-pyrazol-5-yl)phenyl)piperidine-1-carbonyl)phenyl)-6-(isopropylamino)nicotinamide]: the IC50 is 15100 nM in the assay on A2780 ovarian cells [1], 1070 nM in assay [2], 851 nM in the assay on A2780 ovarian cells [3] and 178 nM in assay [4]. Also, the inhibition at 10 µM in assay [4] is 105%.

For the molecule `Cc1ccc(C(=O)N2CC(c3ccc(-c4cnn(C)c4)cc3)C2)cc1NC(=O)c1cccs1` [Compound 84, N-(2-methyl-5-(3-(4-(1-methyl-1H-pyrazol-4-yl)phenyl)azetidine-1-carbonyl)phenyl)thiophene-2-carboxamide], the IC50 in the assay with A2780 ovarian cells [1] is > 10000 nM; in assay [2], 162 nM; in the assay with A2780 ovarian cells [3], 234 nM; in assay [4], 37.2 nM. Moreover, in assay [4], the inhibition at 10 µM turned out to be 103%.

Turning to `Cc1ccc(C(=O)N2CCC(c3ccc(-c4cnn(C)c4)cn3)CC2)cc1NC(=O)c1ccc(NC(C)C)nc1` [Compound 264, 6-(isopropylamino)-N-(2-methyl-5-(4-(5-(1-methyl-1H-pyrazol-4-yl)pyridin-2-yl)piperidine-1-carbonyl)phenyl)nicotinamide], the IC50 in the assay on A2780 ovarian cells [1] was > 10000 nM; in assay [2], 219 nM; in the assay on A2780 ovarian cells [3] it was 87.1 nM; in assay [4], 58.9 nM. For the same molecule, the inhibition at 10 µM in assay [4] worked out at 109%.

`Cc1ccc(C(=O)N2CCC(c3ccc(-c4ccsc4)cc3)CC2)cc1NC(=O)c1ccc(NC(C)C)nc1` [Compound 223, 6-(isopropylamino)-N-(2-methyl-5-(4-(4-(thiophen-3-yl)phenyl)piperidine-1-carbonyl)phenyl)nicotinamide]: the IC50 in the assay on A2780 ovarian cells [1] was 2040 nM; in assay [2], 141 nM; in the assay with A2780 ovarian cells [3], 148 nM; in assay [4], 69.2 nM. Further, the inhibition at 10 µM in assay [4] turned out to be 102%.

In the case of `COc1ccc(C(=O)Nc2cc(C(=O)N3CCC(c4ccc(-c5cnn(C)c5)cc4)CC3)ccc2C)cc1` [Compound 93, 4-methoxy-N-(2-methyl-5-(4-(4-(1-methyl-1H-pyrazol-4-yl)phenyl)piperidine-1-carbonyl)phenyl)benzamide], the IC50 is > 10000 nM in the assay on A2780 ovarian cells [1], 29.5 nM in assay [2], 95.5 nM in the assay on A2780 ovarian cells [3] and 17.4 nM in assay [4]. Moreover, the inhibition at 10 µM in assay [4] came out at 100%.

Turning to `CCCN1CCC(C(=O)Nc2cc(C(=O)N3CCC(c4ccc(-c5cnn(C)c5)cc4)CC3)ccc2C)CC1` [Compound 181, N-(2-methyl-5-(4-(4-(1-methyl-1H-pyrazol-4-yl)phenyl)piperidine-1-carbonyl)phenyl)-1-propylpiperidine-4-carboxamide], the IC50 in the assay with A2780 ovarian cells [1] is > 10000 nM; in assay [2], 110 nM; with A2780 ovarian cells [3], 32.4 nM; in assay [4], 41.7 nM. For the same molecule, the inhibition at 10 µM in assay [4] came out at 108%.
